# Assay results: US6407114B1, “Pyrazolopyrimidinone CGMP PDE5 inhibitors for the treatment of sexual dysfunction” (Pfizer Inc., priority 1998, dated 2002)
# Target: cGMP PDE5 (UniProt O76074)
# Experiment: In vitro PDE inhibitory activity against cGMP PDE5
# Type: biochemical
# Conditions: in vitro inhibition of cGMP PDE5
# Procedure: In vitro PDE inhibitory activities against cyclic guanosine 3′,5′-monophosphate (cGMP) and cyclic adenosine 3′,5′-monophosphate (cAMP) phosphodiesterases were determined by measurement of their IC50 values (the concentration of compound required for 50% inhibition of enzyme activity).
# The required PDE enzymes were isolated from a variety of sources, including human corpus cavernosum, human and rabbit platelets, human cardiac ventricle, human skeletal muscle and bovine retina, essentially by the method of W. J. Thompson and M. M. Appleman (Biochem., 1971, 10, 311). In particular, the cGMP-specific PDE (PDE5) and the cGMP-inhibited cAMP PDE (PDE3) were obtained from human corpus cavernosum tissue, human platelets or rabbit platelets; the cGMP-stimulated PDE (PDE2) was obtained from human corpus cavernosum; the calcium/calmodulin (Ca/CAM)-dependent PDE (PDE1) from human cardiac ventricle; the cAMP-specific PDE (PDE4) from human skeletal muscle; and the photoreceptor PDE (PDE6) from bovine retina.
# Assays were performed using a modification of the “batch” method of W. J. Thompson et al. (Biochem., 1979, 18, 5228).
row,Structure (SMILES),IC50 [nM]
1,"CCCn1nc(Cc2ccccc2)c2c(=O)[nH]c(-c3cc(S(=O)(=O)N4CCN(C)CC4)ccc3OCC)nc21 [Example 4, 3-Benzyl-6-[2-ethoxy-5-(4-methylpiperazin-1-ylsulphonyl)phenyl]-1-n-propyl-1,5-dihydro-4H-pyrazolo[3,4-d]pyrimidin-4-one]",5.61
2,"CCCOc1ccc(S(=O)(=O)N2CCN(C)CC2)cc1-c1nc2c(c(C)nn2Cc2ccccn2)c(=O)[nH]1 [Example 14, 3-Methyl-6-[5-(4-methylpiperazin-1-ylsulphonyl)-2-n-propoxyphenyl]-1-(pyridin-2-yl)methyl-1,5-dihydro-4H-pyrazolo[3,4-d]pyrimidin-4-one]",4.4
3,"CCCOc1ccc(S(=O)(=O)N2CCN(CC)CC2)cc1-c1nc2c(c(Cc3ccccn3)nn2CCC)c(=O)[nH]1 [Example 1, 6-[5-(4-Ethylpiperazin-1-ylsulphonyl)-2-n-propoxyphenyl]-1-n-propyl-3-(pyridin-2-yl)methyl-1,5-dihydro-4H-pyrazolo[3,4-d]pyrimidin-4-one]",9.3

# More lines, now with the values ahead:
row,IC50 [nM],Structure (SMILES)
1,7.67,"CCCn1nc(-c2cnccn2)c2c(=O)[nH]c(-c3cc(S(=O)(=O)N4CCN(CC)CC4)cnc3OCC)nc21 [Example 19, 6-[2-Ethoxy-5-(4-ethylpiperazin-1-ylsulphonyl)pyridin-3-yl]-1-n-propyl-3-(pyrazin-2-yl)-1,5-dihydro-4H-pyrazolo[3,4-d]pyrimidin-4-one]"
2,4.6,"CCOc1ncc(S(=O)(=O)N2CCN(CC)CC2)cc1-c1nc2c(c(-c3ccccc3)nn2CC)c(=O)[nH]1 [Example 21, 6-[2-Ethoxy-5-(4-ethylpiperazin-1-ylsulphonyl)pyridin-3-yl]-1-ethyl-3-phenyl-1,5-dihydro-4H-pyrazolo[3,4-d]pyrimidin-4-one]"
3,8.1,"CCOc1ncc(S(=O)(=O)N2CCN(CC)CC2)cc1-c1nc2c(c(-c3cnccn3)nn2CC)c(=O)[nH]1 [Example 18, 6-[2-Ethoxy-5-(4-ethylpiperazin-1-ylsulphonyl)pyridin-3-yl]-1-ethyl-3-(pyrazin-2-yl)-1,5-dihydro-4H-pyrazolo[3,4-d]pyrimidin-4-one]"
